Experimental data from patent US9738902B2, “Modified PYR/PYL receptors activated by ligands” (priority 2013, dated 2017).

Key:
Experiment in all cases: Y2H Pocket Library Screen (HAB1, X-gal)
Assay type in all cases: cell-based
[1] = target: T1, PYR1 K59R F108N (Arabidopsis thaliana, UniProt O49686, F108N/K59R)
T1 construct: expressed in transfected cells; host or cells: S. cerevisiae Y190 yeast two-hybrid reporter strain
Summary of the method: (§1)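 Mutant PYR1 variants are screened in yeast two-hybrid against HAB1, with 100 μM compound in –Leu/–Trp dextrose agar; responsiveness is judged by X-gal staining after 2 days at 30° C.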

[2] = target: T2, PYR1 K59R F108T (Arabidopsis thaliana, UniProt O49686, F108T/K59R)
T2 construct: expressed in transfected cells; host or cells: S. cerevisiae Y190 yeast two-hybrid reporter strain
Summary of the method: as §1

[3] = target: T3, PYR1 K59R F108G (Arabidopsis thaliana, UniProt O49686, F108G/K59R)
T3 construct: expressed in transfected cells; host or cells: S. cerevisiae Y190 yeast two-hybrid reporter strain
T3 sequence (O49686 whole entry K59R/F108G): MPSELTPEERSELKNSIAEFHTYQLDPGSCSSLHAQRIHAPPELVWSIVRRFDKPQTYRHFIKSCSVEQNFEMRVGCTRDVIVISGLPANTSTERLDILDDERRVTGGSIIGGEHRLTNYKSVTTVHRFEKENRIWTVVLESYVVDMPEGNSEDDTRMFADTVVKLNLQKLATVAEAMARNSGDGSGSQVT
T3 sequence (Q9CAJ0 23-511 partner): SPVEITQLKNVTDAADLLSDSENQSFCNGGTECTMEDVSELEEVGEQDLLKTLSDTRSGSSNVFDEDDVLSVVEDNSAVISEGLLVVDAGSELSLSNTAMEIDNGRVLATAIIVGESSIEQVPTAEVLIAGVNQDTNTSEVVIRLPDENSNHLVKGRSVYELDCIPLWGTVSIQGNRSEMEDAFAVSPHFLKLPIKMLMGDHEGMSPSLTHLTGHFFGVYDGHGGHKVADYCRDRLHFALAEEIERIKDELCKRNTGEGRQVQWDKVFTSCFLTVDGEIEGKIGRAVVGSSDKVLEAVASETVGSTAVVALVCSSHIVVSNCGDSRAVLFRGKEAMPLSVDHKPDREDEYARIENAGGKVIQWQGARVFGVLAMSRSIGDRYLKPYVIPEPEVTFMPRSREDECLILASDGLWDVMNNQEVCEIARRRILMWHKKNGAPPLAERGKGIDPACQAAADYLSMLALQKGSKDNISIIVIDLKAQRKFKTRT
Summary of the method: as §1

[4] = target: T4, PYR1 K59R F108V (Arabidopsis thaliana, UniProt O49686, F108V/K59R)
T4 construct: expressed in transfected cells; host or cells: S. cerevisiae Y190 yeast two-hybrid reporter strain
T4 sequence (O49686 whole entry K59R/F108V): as the sequence (O49686 whole entry K59R/F108G) above, with G108V counted along it
T4 sequence (Q9CAJ0 23-511 partner): as the sequence (Q9CAJ0 23-511 partner) above
Summary of the method: as §1

[5] = target: T5, PYR1 K59R F159A (Arabidopsis thaliana, UniProt O49686, F159A/K59R)
T5 construct: expressed in transfected cells; host or cells: S. cerevisiae Y190 two-hybrid reporter strain
Summary of the method: as §1

[6] = target: T6, PYR1 K59R N167T (Arabidopsis thaliana, UniProt O49686, K59R/N167T)
T6 construct: expressed in transfected cells; host or cells: S. cerevisiae Y190 two-hybrid reporter strain
Summary of the method: as §1

[7] = target: T7, PYR1 K59R M158L (Arabidopsis thaliana, UniProt O49686, K59R/M158L)
T7 construct: expressed in transfected cells; host or cells: S. cerevisiae Y190 two-hybrid reporter strain
Summary of the method: as §1

[8] = target: T8, PYR1 K59R T162Y (Arabidopsis thaliana, UniProt O49686, K59R/T162Y)
T8 construct: expressed in transfected cells; host or cells: S. cerevisiae Y190
Summary of the method: as §1

[9] = target: T9, PYR1 K59R V164Y (Arabidopsis thaliana, UniProt O49686, K59R/V164Y)
T9 construct: expressed in transfected cells; host or cells: S. cerevisiae Y190 two-hybrid reporter strain
Summary of the method: as §1

[10] = target: T10, PYR1 K59R E141Y (Arabidopsis thaliana, UniProt O49686, E141Y/K59R)
T10 construct: expressed in transfected cells; host or cells: S. cerevisiae Y190 two-hybrid reporter strain
Summary of the method: as §1

[11] = target: T11, PYR1 K59R M158V (Arabidopsis thaliana, UniProt O49686, K59R/M158V)
T11 construct: expressed in transfected cells; host or cells: S. cerevisiae Y190 two-hybrid reporter strain
Summary of the method: as §1

[12] = target: T12, PYR1 K59R V164C (Arabidopsis thaliana, UniProt O49686, K59R/V164C)
T12 construct: expressed in transfected cells; host or cells: S. cerevisiae Y190
Summary of the method: as §1

[13] = target: T13, PYR1 K59R N167D (Arabidopsis thaliana, UniProt O49686, K59R/N167D)
T13 construct: expressed in transfected cells; host or cells: S. cerevisiae Y190 two-hybrid reporter strain
Summary of the method: as §1

[14] = target: T14, PYR1 K59R V164N (Arabidopsis thaliana, UniProt O49686, K59R/V164N)
T14 construct: expressed in transfected cells; host or cells: S. cerevisiae Y190 two-hybrid reporter strain
Summary of the method: as §1

[15] = target: T15, PYR1 K59R A160I (Arabidopsis thaliana, UniProt O49686, A160I/K59R)
T15 construct: expressed in transfected cells; host or cells: S. cerevisiae Y190
T15 sequence (O49686 whole entry K59R/A160I): as the sequence (O49686 whole entry K59R/F108G) above, with G108F, A160I counted along it
T15 sequence (Q9CAJ0 23-511 partner): as the sequence (Q9CAJ0 23-511 partner) above
Summary of the method: as §1

[16] = target: T16, PYR1 K59R E141F (Arabidopsis thaliana, UniProt O49686, E141F/K59R)
T16 construct: expressed in transfected cells; host or cells: S. cerevisiae Y190 two-hybrid reporter strain
Summary of the method: as §1

[17] = target: T17, PYR1 K59R V164G (Arabidopsis thaliana, UniProt O49686, K59R/V164G)
T17 construct: expressed in transfected cells; host or cells: S. cerevisiae Y190
T17 sequence (O49686 whole entry K59R/V164G): as the sequence (O49686 whole entry K59R/F108G) above, with G108F, V164G counted along it
T17 sequence (Q9CAJ0 23-511 partner): as the sequence (Q9CAJ0 23-511 partner) above
Summary of the method: as §1

[18] = target: T18, PYR1 K59R H115N (Arabidopsis thaliana, UniProt O49686, H115N/K59R)
T18 construct: expressed in transfected cells; host or cells: S. cerevisiae Y190 two-hybrid reporter strain
Summary of the method: as §1

[19] = target: T19, PYR1 K59R V164L (Arabidopsis thaliana, UniProt O49686, K59R/V164L)
T19 construct: expressed in transfected cells; host or cells: S. cerevisiae Y190
T19 sequence (O49686 whole entry K59R/V164L): as the sequence (O49686 whole entry K59R/F108G) above, with G108F, V164L counted along it
T19 sequence (Q9CAJ0 23-511 partner): as the sequence (Q9CAJ0 23-511 partner) above
Summary of the method: as §1

[20] = target: T20, PYR1 K59R I110M (Arabidopsis thaliana, UniProt O49686, I110M/K59R)
T20 construct: expressed in transfected cells; host or cells: S. cerevisiae Y190 two-hybrid reporter strain
Summary of the method: as §1

[21] = target: T21, PYR1 K59R V164K (Arabidopsis thaliana, UniProt O49686, K59R/V164K)
T21 construct: expressed in transfected cells; host or cells: S. cerevisiae Y190
Summary of the method: as §1

[22] = target: T22, PYR1 K59R V164A (Arabidopsis thaliana, UniProt O49686, K59R/V164A)
T22 construct: expressed in transfected cells; host or cells: S. cerevisiae Y190
T22 sequence (O49686 whole entry K59R/V164A): as the sequence (O49686 whole entry K59R/F108G) above, with G108F, V164A counted along it
T22 sequence (Q9CAJ0 23-511 partner): as the sequence (Q9CAJ0 23-511 partner) above
Summary of the method: as §1

[23] = target: T23, PYR1 K59R A160N (Arabidopsis thaliana, UniProt O49686, A160N/K59R)
T23 construct: expressed in transfected cells; host or cells: S. cerevisiae Y190
Summary of the method: as §1

[24] = target: T24, PYR1 K59R T162W (Arabidopsis thaliana, UniProt O49686, K59R/T162W)
T24 construct: expressed in transfected cells; host or cells: S. cerevisiae Y190
Summary of the method: as §1

[25] = target: T25, PYR1 K59R V164M (Arabidopsis thaliana, UniProt O49686, K59R/V164M)
T25 construct: expressed in transfected cells; host or cells: S. cerevisiae Y190
Summary of the method: as §1

[26] = target: T26, PYR1 K59R N167Q (Arabidopsis thaliana, UniProt O49686, K59R/N167Q)
T26 construct: expressed in transfected cells; host or cells: S. cerevisiae Y190 two-hybrid reporter strain
Summary of the method: as §1

[27] = target: T27, PYR1 K59R N167C (Arabidopsis thaliana, UniProt O49686, K59R/N167C)
T27 construct: expressed in transfected cells; host or cells: S. cerevisiae Y190 two-hybrid reporter strain
T27 sequence (O49686 whole entry K59R/N167C): as the sequence (O49686 whole entry K59R/F108G) above, with G108F, N167C counted along it
T27 sequence (Q9CAJ0 23-511 partner): as the sequence (Q9CAJ0 23-511 partner) above
Summary of the method: as §1

[28] = target: T28, PYR1 K59R N167A (Arabidopsis thaliana, UniProt O49686, K59R/N167A)
T28 construct: expressed in transfected cells; host or cells: S. cerevisiae Y190 two-hybrid reporter strain
Summary of the method: as §1

Measured: Threshold

C#CCOc1ccc(CCNC(=O)C(OCC#C)c2ccc(Cl)cc2)cc1OC (stereo not shown) [Mandipropamid, mandipropamid]
100 µM: [1] | [2] | [3] | [4] | [5]

N#Cc1c(Cl)cccc1Cl [Dichlobenil, dichlobenil]
not listed: [1] | [2] | [3] | [4] | [5]
100 µM: all other assays above
